Test results reported in patent publication US9051290B2, “Biaryl phosphodiesterase inhibitors” (LEO PHARMA A/S, priority 2010, dated 2015).

Target: Human recombinant PDE4 (Genbank accession no NM—006203) (Homo sapiens, UniProt Q08499)
Assay: PDE4 assay (SPA, cleavage of cAMP)
Assay type: biochemical
Conditions: 1 hour incubation, test compound up to 10 μM, cAMP 1×10^−5M, read-out: PDE4 IC50 range
Protocol: Human recombinant PDE4 (Genbank accession no NM_006203) was incubated for 1 hour with the test compound at concentrations up to 10 μM, with cAMP (1×10^−5M), and with a low amount (0.021 MBq) of radioactively labelled cAMP. At the end of the incubation, the cleavage of the substrate was evaluated by the binding of the AMP product to SPA beads, which generate chemoluminescence when bound to the radioactive tracer. The AMP product inhibited the binding of the radioactive tracer to the beads, and the luminescent signal was competed.
The results were calculated as the molar concentrations resulting in 50% inhibition of the substrate cleavage compared to controls samples, and are expressed as a range of IC50 (M).
The compounds of the present invention were tested in the PDE4 assay.

Chain of Human recombinant PDE4 (Genbank accession no NM—006203) (Q08499 1-673 isoform Q08499-2): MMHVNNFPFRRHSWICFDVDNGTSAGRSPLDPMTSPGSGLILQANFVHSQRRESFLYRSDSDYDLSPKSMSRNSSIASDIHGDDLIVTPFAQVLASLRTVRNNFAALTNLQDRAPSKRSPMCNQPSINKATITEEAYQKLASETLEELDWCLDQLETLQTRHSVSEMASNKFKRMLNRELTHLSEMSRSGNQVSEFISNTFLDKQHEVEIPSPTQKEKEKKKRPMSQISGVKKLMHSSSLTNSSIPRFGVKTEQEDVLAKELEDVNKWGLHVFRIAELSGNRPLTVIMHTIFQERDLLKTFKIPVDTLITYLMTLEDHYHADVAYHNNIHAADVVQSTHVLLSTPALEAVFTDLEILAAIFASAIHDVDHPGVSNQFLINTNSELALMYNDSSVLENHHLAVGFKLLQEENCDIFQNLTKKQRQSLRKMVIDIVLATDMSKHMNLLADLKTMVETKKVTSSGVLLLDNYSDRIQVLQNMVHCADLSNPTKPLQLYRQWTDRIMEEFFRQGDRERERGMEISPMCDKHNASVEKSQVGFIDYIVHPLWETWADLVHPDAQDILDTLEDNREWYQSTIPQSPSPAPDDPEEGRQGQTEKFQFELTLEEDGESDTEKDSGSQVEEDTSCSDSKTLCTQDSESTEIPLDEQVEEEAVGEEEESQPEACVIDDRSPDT

Compound	IC50 [µM]
COc1ccc(-c2cccc3c2COC3=O)c(OCC2(CO)COC2)c1OC [Compound 119, 4-[2-(3-Hydroxymethyl-oxetan-3-ylmethoxy)-3,4-dimethoxy-phenyl]-3H-isobenzofuran-1-one]	0.1 to 0.5
COc1ccc(-c2ccc3c(c2)CNC3=O)c(OCc2ccc(C(=O)N(C)C)cc2)c1OC [Compound 156, 4-[2,3-Dimethoxy-6-(1-oxo-2,3-dihydro-1H-isoindol-5-yl)-phenoxymethyl]-N,N-dimethyl-benzamide]	< 0.1
CCNC(=O)C(C)(C)COc1c(-c2cccc3c2CCC3=O)ccc(OC)c1OC [Compound 201, 3-[2,3-Dimethoxy-6-(1-oxo-indan-4-yl)-phenoxy]-N-ethyl-2,2-dimethyl-propionamide]	< 0.1
COc1ccc(-c2cccc3c2CCC3=O)c(OCc2cccc(C(=O)N(C)C)c2)c1OC [Compound 110, 3-[2,3-Dimethoxy-6-(1-oxo-indan-4-yl)-phenoxymethyl]-N,N-dimethyl-benzamide]	< 0.1
COc1ccc(-c2ccc3c(c2)COC3=O)c(OCc2ccc(S(N)(=O)=O)cc2)c1OC [Compound 141, 4-[2,3-Dimethoxy-6-(1-oxo-1,3-dihydro-isobenzofuran-5-yl)-phenoxymethyl]-benzenesulfonamide]	< 0.1
COc1ccc(-c2cccc3c2CCC3=O)c(OCc2ccc(S(N)(=O)=O)cc2)c1OC [Compound 112, 4-[2,3-Dimethoxy-6-(1-oxo-indan-4-yl)-phenoxymethyl]-benzenesulfonamide]	< 0.1
COc1ccc(-c2ccc3c(c2)COC3=O)c(OCc2cccc(C(=O)N(C)C)c2)c1OC [Compound 140, 3-[2,3-Dimethoxy-6-(1-oxo-1,3-dihydro-isobenzofuran-5-yl)-phenoxymethyl]-N,N-dimethyl-benzamide]	< 0.1
COc1ccc(-c2ccc3c(c2)CNC3=O)c(OCc2cccc(C(N)=O)c2)c1OC [Compound 159, 3-[2,3-Dimethoxy-6-(1-oxo-2,3-dihydro-1H-isoindol-5-yl)-phenoxymethyl]-benzamide]	0.1 to 0.5
COc1ccc(-c2ccc3c(c2)CCC3=O)c(OCC(C)(C)C(=O)N(C)C)c1OC [Compound 207, 3-[2,3-Dimethoxy-6-(1-oxo-indan-5-yl)-phenoxy]-2,2,N,N-tetramethyl-propionamide]	0.1 to 0.5
COCC(C)(C)COc1c(-c2cccc3c2CCC3=O)ccc(OC)c1OC [Compound 217, 4-[3,4-Dimethoxy-2-(3-methoxy-2,2-dimethyl-propoxy)-phenyl]-indan-1-one]	< 0.1
COc1ccc(-c2ccc3c(c2)CNC3=O)c(OCC(C)(C)C)c1OC [Compound 148, 5-[2-(2,2-Dimethyl-propoxy)-3,4-dimethoxy-phenyl]-2,3-dihydro-isoindol-1-one]	< 0.1
COc1ccc(-c2cccc3c2CCC3=O)c(OCC(C)(C)C(=O)N(C)C)c1OC [Compound 202, 3-[2,3-Dimethoxy-6-(1-oxo-indan-4-yl)-phenoxy]-2,2,N,N-tetramethyl-propionamide]	< 0.1
COc1ccc(-c2ccc3c(c2)CNC3=O)c(OCC2(CO)COC2)c1OC [Compound 151, 5-[2-(3-Hydroxymethyl-oxetan-3-ylmethoxy)-3,4-dimethoxy-phenyl]-2,3-dihydro-isoindol-1-one]	0.1 to 0.5
COc1ccc(-c2ccc3c(c2)CNC3=O)c(OCc2ccc(S(N)(=O)=O)cc2)c1OC [Compound 161, 4-[2,3-Dimethoxy-6-(1-oxo-2,3-dihydro-1H-isoindol-5-yl)-phenoxymethyl]-benzenesulfonamide]	< 0.1
COc1ccc(-c2ccc3c(c2)COC3=O)c(OCC2(CO)COC2)c1OC [Compound 134, 5-[2-(3-Hydroxymethyl-oxetan-3-ylmethoxy)-3,4-dimethoxy-phenyl]-3H-isobenzofuran-1-one]	< 0.1
COCC(C)(C)COc1c(-c2ccc3c(c2)CNC3=O)ccc(OC)c1OC [Compound 219, 5-[3,4-Dimethoxy-2-(3-methoxy-2,2-dimethyl-propoxy)-phenyl]-2,3-dihydro-isoindol-1-one]	< 0.1
COc1ccc(-c2ccc3c(c2)CCC3=O)c(OCC(C)(C)C)c1OC [Compound 121, 5-[2-(2,2-Dimethyl-propoxy)-3,4-dimethoxy-phenyl]-indan-1-one]	< 0.1
COc1ccc(-c2ccc3c(c2)CNC3=O)c(OCCC(C)(C)C)c1OC [Compound 152, 5-[2-(3,3-Dimethyl-butoxy)-3,4-dimethoxy-phenyl]-2,3-dihydro-isoindol-1-one]	< 0.1
COc1ccc(-c2cccc3c2CCC3=O)c(OCC2(CNC(=O)C(C)C)COC2)c1OC [Compound 193, N-{3-[2,3-Dimethoxy-6-(1-oxo-indan-4-yl)-phenoxymethyl]-oxetan-3-ylmethyl}-isobutyramide]	< 0.1
COc1ccc(-c2ccc3c(c2)CCC3=O)c(OCC2CCC2)c1OC [Compound 122, 5-(2-Cyclobutylmethoxy-3,4-dimethoxy-phenyl)-indan-1-one]	< 0.1
COc1ccc(-c2ccc3c(c2)COC3=O)c(OCc2cccc(C(N)=O)c2)c1OC [Compound 146, 3-[2,3-Dimethoxy-6-(1-oxo-1,3-dihydro-isobenzofuran-5-yl)-phenoxymethyl]-benzamide]	< 0.1
COc1ccc(-c2ccc3c(c2)CCC3=O)c(OCc2cccc(C(=O)N(C)C)c2)c1OC [Compound 128, 3-[2,3-Dimethoxy-6-(1-oxo-indan-5-yl)-phenoxymethyl]-N,N-dimethyl-benzamide]	< 0.1
COCC(=O)NCC1(COc2c(-c3cccc4c3CCC4=O)ccc(OC)c2OC)COC1 [Compound 195, N-{3-[2,3-Dimethoxy-6-(1-oxo-indan-4-yl)-phenoxymethyl]-oxetan-3-ylmethyl}-2-methoxy-acetamide]	< 0.1
COc1ccc(-c2cccc3c2CCC3=O)c(OCC2(CNC(=O)OC(C)C)CC2)c1OC [Compound 187, {1-[2,3-Dimethoxy-6-(1-oxo-indan-4-yl)-phenoxymethyl]-cyclopropylmethyl}-carbamic Acid Isopropyl Ester]	< 0.1
COc1ccc(-c2cccc3c2CCC3=O)c(OCc2cccc(C(N)=O)c2)c1OC [Compound 114, 3-[2,3-Dimethoxy-6-(1-oxo-indan-4-yl)-phenoxymethyl]-benzamide]	< 0.1

Results, then the compound that gave them:

IC50 [µM]	Compound
< 0.1	COc1ccc(-c2cccc3c2CCC3=O)c(OCc2cccc(S(C)(=O)=O)c2)c1OC [Compound 113, 4-[2-(3-Methanesulfonyl-benzyloxy)-3,4-dimethoxy-phenyl]-indan-1-one]
< 0.1	CNC(=O)C(C)(C)COc1c(-c2cccc3c2CCC3=O)ccc(OC)c1OC [Compound 200, 3-[2,3-Dimethoxy-6-(1-oxo-indan-4-yl)-phenoxy]-2,2,N-trimethyl-propionamide]
< 0.1	CCNC(=O)OCC1(COc2c(-c3ccc4c(c3)COC4=O)ccc(OC)c2OC)COC1 [Compound 213, Ethyl-carbamic acid 3-[2,3-dimethoxy-6-(1-oxo-1,3-dihydro-isobenzofuran-5-yl)-phenoxymethyl]-oxetan-3-ylmethyl ester]
< 0.1	CNC(=O)c1ccc(COc2c(-c3ccc4c(c3)CCC4=O)ccc(OC)c2OC)cc1 [Compound 126, 4-[2,3-Dimethoxy-6-(1-oxo-indan-5-yl)-phenoxymethyl]-N-methyl-benzamide]
< 0.1	CNC(=O)c1ccc(COc2c(-c3ccc4c(c3)COC4=O)ccc(OC)c2OC)cc1 [Compound 138, 4-[2,3-Dimethoxy-6-(1-oxo-1,3-dihydro-isobenzofuran-5-yl)-phenoxymethyl]-N-methyl-benzamide]
< 0.1	COc1ccc(-c2cccc3c2CCC3=O)c(OCC2(COC(=O)NCc3ccccc3)CC2)c1OC [Compound 181, Benzyl-carbamic acid 1-[2,3-dimethoxy-6-(1-oxo-indan-4-yl)-phenoxymethyl]-cyclopropylmethyl ester]
< 0.1	COc1ccc(-c2cccc3c2COC3=O)c(OCc2ccc(C(N)=O)cc2)c1OC [Compound 116, 4-[2,3-Dimethoxy-6-(1-oxo-1,3-dihydro-isobenzofuran-4-yl)-phenoxymethyl]-benzamide]
< 0.1	CCNC(=O)OCC(C)(C)COc1c(-c2cccc3c2CCC3=O)ccc(OC)c1OC [Compound 211, Ethyl-carbamic acid 3-[2,3-dimethoxy-6-(1-oxo-indan-4-yl)-phenoxy]-2,2-dimethyl-propyl ester]
< 0.1	COc1ccc(-c2cccc3c2CCC3=O)c(OCC(C)(C)C(=O)N2CCOCC2)c1OC [Compound 204, 4-[2-(2,2-Dimethyl-3-morpholin-4-yl-3-oxo-propoxy)-3,4-dimethoxy-phenyl]-indan-1-one]
< 0.1	COc1ccc(-c2ccc3c(c2)COC3=O)c(OCc2ccc(S(C)(=O)=O)cc2)c1OC [Compound 142, 5-[2-(4-Methanesulfonyl-benzyloxy)-3,4-dimethoxy-phenyl]-3H-isobenzofuran-1-one]
< 0.1	CCOC(=O)NCC1(COc2c(-c3cccc4c3CCC4=O)ccc(OC)c2OC)COC1 [Compound 196, {3-[2,3-Dimethoxy-6-(1-oxo-indan-4-yl)-phenoxymethyl]-oxetan-3-ylmethyl}-carbamic acid ethyl ester]
< 0.1	COc1ccc(-c2ccc3c(c2)COC3=O)c(OCc2cccc(S(N)(=O)=O)c2)c1OC [Compound 144, 3-[2,3-Dimethoxy-6-(1-oxo-1,3-dihydro-isobenzofuran-5-yl)-phenoxymethyl]-benzenesulfonamide]
< 0.1	COc1ccc(-c2ccc3c(c2)CCC3=O)c(OCC(C)(C)CO)c1OC [Compound 125, 5-[2-(3-Hydroxy-2,2-dimethyl-propoxy)-3,4-dimethoxy-phenyl]-indan-1-one]
